# From patent US5622983A, “N-substituted cycloalkyl and polycycloalkyl α-substituted Trp-Phe- and phenethylamine derivatives” (Warner-Lambert Company, priority 1995, dated 1997)
# Key:
# Rat Elevated X-Maze Test = assay type: in vivo; conditions: 0.01 to 1.0 mg/kg s.c.
# Description: The dose was equivalent to 0.1 mg/kg p.o. compound 20.
# [1] = Antagonism of intra-accumbens amphetamine hyperactivity (antipsychotic activity); assay type: in vivo, rat; conditions: 10 mg/kg intraperitoneal; amphetamine 20 μg
# Description: Male Sprague Dawley (CD) Bradford strain rats were used. The rats were housed in groups of five at a temperature of 21°±2° C. on a 12 hour light-dark cycle of lights-on between 07 hours 00 minutes and […]. Rats were fed CRM diet (Labsure) and allowed water ad libitum.
# Rats were anesthetized with chloral hydrate (400 mg/kg SC) and placed in a Kopf stereotaxic frame. Chronically indwelling guide cannulae (constructedof stainless steel tubing 0.65 mm diameter held bilaterally in Parspex holders) were implanted using standard stereotaxic techniques to terminate 3.5 mm above the center of the nucleus accumbens (Ant. 9.4, Vert. 0.0, Lat. 1.6) or 5.0 mm above the central nucleus of the amygdala (Ant. 5.8, Vert. -1.8, Lat. ±4.5) (atlas of De Groot, 1959). The guides were kept patent during a 14-day recovery period using stainless steel stylers, 0.3 mm diameter, which extended 0.5 mmbeyond the guide tips.
# Rats were manually restrained and the stylers removed. Intracerebral injection cannulae, 0.3 mm diameter, were inserted and drugs delivered in a volume of 0.5 μl over 5 seconds (a further 55 seconds was allowed for deposition) from Hamilton syringes attached via polythene tubing to the injection units. […]
# The abilities of the compounds (20) and (20A) to inhibit the hyperactivity caused by the injection of amphetamine into the nucleus accumbens of the rat was measured. […]
# [2] = Rat Social Interaction Test; assay type: in vivo; conditions: 0,001 to 1.0 mg/kg s.c., paired rats
# Source text: (Costall, B., University of Bradford)
# [3] = Light/dark exploration test (anxiolytic activity); assay type: in vivo, mouse
# Description: In FIG. 2 the number of mice was 5 and the pretreatment time was 40 minutes. The compound was given p.o. in 0.1, 1, and 10 mg/kg doses.
# The apparatus was an open-topped box, 45 cm long, 27 cm wide, and 27 cm high, divided into a small (2/5) area and a large (3/5) area by a partition that extended 20 cm above the walls. There was a 7.5×7.5 cm opening in the partition at floor level. The small compartment was painted black and the large compartment white. The floor of each compartment was marked into 9 cm squares. The white compartment was illuminated by a 100-watt tungsten bulb 17 cm above the box and the black compartment by a similarly placed 60-watt red bulb. The laboratory was illuminated with red light.
# All tests were performed between 13 hundred hours, 0 minutes and 18 hundred hours, 0 minutes. Each mouse was tested by placing it in the center of the white area and allowing it to explore the novel environment for five minutes. Its behavior was recorded on videotape and the behavioral analysis was performed subsequently from the recording. Five parameters were measured: the latency to entry into the dark compartment, the time spent in each area, the number of transitions between compartments, the number of lines crossed in each compartment, and the number of rears in each compartment.
# Drugs were dissolved in water or saline and administered either subcutaneously, intraperitoneally, or by mouth (PO) via a stomach needle.
# [4] = system: pentagastrin stimulated gastric acid secretion; assay: Pentagastrin stimulated gastric acid secretion (Ghosh and Schild perfused stomach); assay type: in vivo, rat; conditions: 1 nmole/kg pentagastrin
# Description: They were anesthetized with urethane (1.5 g/kg IP) and the trachea cannulated to aid spontaneous respiration. The stomach was perfused continuously using a modification of the original method of Ghosh & Schild in "Continuous recording of acid secretion in the rat", Br. J. Pharmac. […] The fluid was propelled by a roller pump (Gilson, Minipuls 2), through heating coils to bring its temperature to 37°±1° C. The perfusion fluid was collected by the fundic collecting funnel and passed to a pH electrode connected to a Jenway pH meter (PHM6). An output was taken from the pH meter to a Rikadenki chart recorder for the on-line recording of the pH of the gastric perfusate.
# Pentagastrin was stored as a frozen aliquot and diluted to the required concentrations with sterile 0.9% w/v NaCl. Novel compounds were dissolved in sterile 0.9% w/v NaCl on the day of the experiment. Drugs were administered IV through a cannulated jugular vein as a bolus in a dose volume of 1 mL/kg washed in with 0.15 mL 0.9% w/v NaCl. Basal pH was allowed to stabilize before administration of compounds was begun.
# [5] = Palatable Diet Feeding assay; assay type: in vivo, rat; conditions: dose producing 50% of the maximum effect possible (zero food intake)
# Description: In the Palatable Diet Feeding assay, adult male Hooded Lister rats weighing between 200-400 g were housed individually and trained to eat a palatable diet. This diet consisted of Nestles sweetened condensed milk, powdered rat food and rat water which when blended together set to a firm consistency. […] The intake of palatable diet was measured by weighing the food container before and after the 30-minute access period (limits of accuracy 0.1 g). Care was taken to collect and correct for any spillage of the diet. Rats had free access to pellet food and water except during the 30-minute test period.
# After the training period, dose-response curves were constructed for CCK8 and several representative compounds of the present invention (n=8-10 rats per dose level).
# LoVo cells = assay: In vitro proliferation of LoVo cells (tetrazolium salt colorimetric assay); assay type: cell-based, human
# Description: LoVo was obtained from the American Tissue Type Collection (ATCC CCL 229). Five×10^3 to 1×10^4 LoVo cells were cultured in 200 μL of serum containing RPMI in 96-well flat-bottomed titre plates for 24 hours. […] Cell proliferation was measured indirectly using a tetrazolium salt colorimetric assay for cellular respiration (Merlin JL, Azzi S, Lignon D, Ramacci C, Zeghari N, Guillemin F. MTT assays allow quick and reliable measurement of the response of human tumor cell to photodynamic therapy. Eur. J. Cancer, 28(8/9):1452-1458 (1992)).
# [6] = 1 mg/kg SC, five-minute measurement periods
compound,measurement,setting,value
"CC(Cc1c[nH]c2ccccc12)(NC(=O)OC1C2CC3CC(C2)CC1C3)C(=O)NCC(NC(=O)CCC(=O)O)c1ccccc1 (stereo not drawn) [Example 20, [R-(R*,R*)-4-[[2-[[3-(1H-indol-3-yl)-2-methyl-1-oxo-2-[[(tricyclo[3.3.1.1^3,7]dec-2-yloxy)carbonyl]amino]propyl]amino]-1-phenylethyl]amino]-4-oxobutanoic acid]","anxiolytic effect, time spent in the open arm end section (FIG. 14)",Rat Elevated X-Maze Test,anxiolytic effects
same,hyperactivity caused by intra-accumbens injection of amphetamine,[1],reduced the hyperactivity
same,time spent in social interaction compared with control (FIG. 13),[2],increase in time spent in social interaction
same,time spent in the light area of the test box,[3]; 1 mg/kg PO,significantly (p <0.01) increased the time spent in the light area
same,crossings into the dark area,[3]; [6],24
same,crossings into the light area,[3]; [6],85
same,"anxiolytic activity, orally administered (FIG. 2)","[3]; p.o. 0.1, 1, and 10 mg/kg, pretreatment 40 minutes",effectiveness
same,anxiolytic activity by the subcutaneous route,[3]; subcutaneous,active
same,reversibility of the antagonism,[4],reversible with full recovery of the response to pentagastrin
same,effect on stimulation of gastric acid secretion produced by pentagastrin,"[4]; compound IV, anesthetized rat",antagonized
same,Inhibition of Feeding on Rat Palatable Diet Assay I.P. MPE50,[5],17.4 mg/kg
same,cellular proliferation expressed as a percentage of control,"LoVo cells; 10^-1 M, 24 hours",58.93±7.30%
same,cellular proliferation expressed as a percentage of control,"LoVo cells; 10^-1 M, 48 hours",82.60±2.33%
same,cellular proliferation expressed as a percentage of control,"LoVo cells; 10^-1 M, 72 hours",80.53±3.06%
same,cellular proliferation expressed as a percentage of control,"LoVo cells; 10^-7 M, 24 hours",81.60±6.62%
same,cellular proliferation expressed as a percentage of control,"LoVo cells; 10^-7 M, 48 hours",95.33±2.50%
same,cellular proliferation expressed as a percentage of control,"LoVo cells; 10^-7 M, 72 hours",84.71±6.97%
same,cellular proliferation expressed as a percentage of control,"LoVo cells; 10^-8 M, 24 hours",70.13±7.15%
same,cellular proliferation expressed as a percentage of control,"LoVo cells; 10^-8 M, 48 hours",93.20±4.04%
same,cellular proliferation expressed as a percentage of control,"LoVo cells; 10^-8 M, 72 hours",85.93±4.19%
same,cellular proliferation expressed as a percentage of control,"LoVo cells; 10^-9 M, 24 hours",62.47±7.20%
same,cellular proliferation expressed as a percentage of control,"LoVo cells; 10^-9 M, 48 hours",82.73±2.97%
same,cellular proliferation expressed as a percentage of control,"LoVo cells; 10^-9 M, 72 hours",79.07±3.18%
same,cellular proliferation expressed as a percentage of control,"LoVo cells; 10^-11 M, 24 hours, LoVo, serum-free RPMI",66.47±6.72%
same,cellular proliferation expressed as a percentage of control,"LoVo cells; 10^-11 M, 48 hours",80.47±2.64%
same,cellular proliferation expressed as a percentage of control,"LoVo cells; 10^-11 M, 72 hours",78.87±3.25%
same,concentrations with significant inhibition,LoVo cells; after 24 and 72 hours (ANOVA),10^-11 to 10^-8 M
same,concentrations with significant inhibition,LoVo cells; at 48 hours (ANOVA),10^-11 to 10^-9 M
same,time of maximum inhibition,LoVo cells; cultures not refed with compound,24 h
